Experimental data taken from US20230002359A1, “PESTICIDALLY ACTIVE FUSED BICYCLIC HETEROAROMATIC COMPOUNDS” (priority 2019, published 2023).

Experiments:
Type in all cases: in vivo
[1] = system: Chilo suppressalis (Striped Rice Stemborer); test: Example B3: Chilo suppressalis (striped rice stemborer), artificial diet, L2 larvae; details: 144 h, application rate of 200 ppm, 6 days after infestation, L2 larvae, read-out: control in at least one of the three categories (mortality, anti-feedant effect, or growth inhibition)
Outline: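 First, artificial diet was treated with aqueous solutions prepared from 10'000 ppm DMSO stocks; second, after drying, L2 larvae (6-8/well) were added; third, effects were assessed at 6 days against untreated controls, counting control when any of three categories was higher.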

[2] = system: Myzus persicae (Green Peach Aphid); test: Example B6: Myzus persicae (green peach aphid) intrinsic activity, sucrose solution; details: 120 h, test rate of 12 ppm, 5 days after infestation, intrinsic activity, read-out: mortality
Experimental: Test compounds prepared from 10′000 ppm DMSO stock solutions were applied by pipette into 24-well microtiter plates and mixed with sucrose solution. The plates were closed with a stretched Parafilm. A plastic stencil with 24 holes was placed onto the plate and infested pea seedlings were placed directly on the Parafilm. The infested plate was closed with a gel blotting paper and another plastic stencil and then turned upside down. The samples were assessed for mortality 5 days after infestation.

[3] = system: Diabrotica Balteata (Corn Root Worm); test: Example B1: Diabrotica balteata (corn root worm), maize sprouts sprayed, L2 larvae; details: 96 h, application rate of 200 ppm, 4 days after infestation, L2 larvae, read-out: control in at least one of the two categories (mortality or growth inhibition)
Outline: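 Read-out is mortality plus growth inhibition relative to untreated controls, assessed 4 days after infestation. Sprouts resting on agar are sprayed with aqueous solutions derived from 10′000 ppm DMSO stocks and left to dry before L2 larvae (6 to 10 per well) are added.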

[4] = system: Plutella xylostella (Diamond Back Moth); test: Example B4: Plutella xylostella (diamond back moth), artificial diet, eggs, 24-well; details: 192 h, application rate of 200 ppm, 8 days after infestation, eggs, read-out: control in at least one of the two categories (mortality or growth inhibition)
Experimental: 24-well microtiter plates with artificial diet were treated with aqueous test solutions prepared from 10′000 ppm DMSO stock solutions by pipetting. After drying, Plutella eggs were pipetted through a plastic stencil onto a gel blotting paper and the plate was closed with it. The samples were assessed for mortality and growth inhibition in comparison to untreated samples 8 days after infestation.

[5] = system: Spodoptera littoralis (Egyptian Cotton Leaf Worm); test: Example B7: Spodoptera littoralis (Egyptian cotton leaf worm), cotton leaf discs sprayed, L1 larvae; details: foliar, 72 h, application rate of 200 ppm, 3 days after infestation, L1 larvae, read-out: control in at least one of the three categories (mortality, anti-feedant effect, or growth inhibition)
Outline: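 Leaf discs on agar sprayed with aqueous dilutions of 10′000 ppm DMSO stocks, dried, then infested with five L1 larvae. Mortality, anti-feeding and growth inhibition scored versus untreated 3 days after infestation; control given when any category exceeds untreated.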

CC(Nc1ncnc2c(OC(F)(F)F)cc(Br)cc12)c1nccnc1-c1ncccn1 (stereo not drawn) [P.11, 6-bromo-N-[1-(3-pyrimidin-2-ylpyrazin-2-yl)ethyl]-8-(trifluoromethoxy)quina-zolin-4-amine]
≥ 80%: percent control (mortality, anti-feedant effect or growth inhibition) at 200 ppm [1] | mortality at 12 ppm [2] | percent control (mortality or growth inhibition) at 200 ppm [3] | percent control (mortality or growth inhibition) at 200 ppm [4] | percent control (mortality, anti-feedant effect or growth inhibition) at 200 ppm [5]

CC(Nc1ncnc2c(Br)cc(OC(F)(F)F)cc12)c1nccnc1-c1ncccn1 (stereo not drawn) [P.12, 8-bromo-N-[1-(3-pyrimidin-2-ylpyrazin-2-yl)ethyl]-6-(trifluoromethoxy)quina-zolin-4-amine]
≥ 80%: percent control (mortality, anti-feedant effect or growth inhibition) at 200 ppm [1] | mortality at 12 ppm [2] | percent control (mortality or growth inhibition) at 200 ppm [3] | percent control (mortality or growth inhibition) at 200 ppm [4] | percent control (mortality, anti-feedant effect or growth inhibition) at 200 ppm [5]

C[C@H](Nc1ncnc2c(Cl)cc(C(F)(F)F)cc12)c1ncnn1-c1ncccn1 [P.18, 8-chloro-N-[(1S)-1-(2-pyrimidin-2-yl-1,2,4-triazol-3-yl)ethyl]-6-(trifluoromethyl)quinazolin-4-amine]
≥ 80%: percent control (mortality, anti-feedant effect or growth inhibition) at 200 ppm [1] | mortality at 12 ppm [2] | percent control (mortality or growth inhibition) at 200 ppm [3] | percent control (mortality or growth inhibition) at 200 ppm [4] | percent control (mortality, anti-feedant effect or growth inhibition) at 200 ppm [5]

C[C@H](Nc1ncnc2c(C(F)(F)F)cc(Cl)cc12)c1ncnn1-c1ccc(C#N)cn1 [P.22, 6-[5-[(1S)-1-[[6-chloro-8-(trifluoromethyl)quinazolin-4-yl]amino]ethyl]-1,2,4-triazol-1-yl]pyridine-3-carbonitrile]
≥ 80%: percent control (mortality, anti-feedant effect or growth inhibition) at 200 ppm [1] | mortality at 12 ppm [2] | percent control (mortality or growth inhibition) at 200 ppm [3] | percent control (mortality or growth inhibition) at 200 ppm [4] | percent control (mortality, anti-feedant effect or growth inhibition) at 200 ppm [5]

CC(Nc1ncnc2c(Br)cc(Br)cc12)c1ncnn1-c1ncccn1 (stereo not drawn) [P.29, 6,8-dibromo-N-[1-(2-pyrimidin-2-yl-1,2,4-triazol-3-yl)ethyl]quinazolin-4-amine]
≥ 80%: percent control (mortality, anti-feedant effect or growth inhibition) at 200 ppm [1] | mortality at 12 ppm [2] | percent control (mortality or growth inhibition) at 200 ppm [3] | percent control (mortality or growth inhibition) at 200 ppm [4] | percent control (mortality, anti-feedant effect or growth inhibition) at 200 ppm [5]

CC(Nc1ncnc2c(OC(F)F)cc(Br)cc12)c1nccnc1-c1ncccn1 (stereo not drawn) [P.32, 6-bromo-8-(difluoromethoxy)-N-[1-(3-pyrimidin-2-ylpyrazin-2-yl)ethyl]quinazolin-4-amine]
≥ 80%: percent control (mortality, anti-feedant effect or growth inhibition) at 200 ppm [1] | mortality at 12 ppm [2] | percent control (mortality or growth inhibition) at 200 ppm [3] | percent control (mortality or growth inhibition) at 200 ppm [4] | percent control (mortality, anti-feedant effect or growth inhibition) at 200 ppm [5]

CC(Nc1ncnc2c(C(F)(F)F)cc(Br)cc12)c1ncnn1-c1ncccn1 (stereo not drawn) [P.44, 6-bromo-N-[1-(2-pyrimidin-2-yl-1,2,4-triazol-3-yl)ethyl]-8-(trifluoromethyl)quinazolin-4-amine]
≥ 80%: percent control (mortality, anti-feedant effect or growth inhibition) at 200 ppm [1] | mortality at 12 ppm [2] | percent control (mortality or growth inhibition) at 200 ppm [3] | percent control (mortality or growth inhibition) at 200 ppm [4] | percent control (mortality, anti-feedant effect or growth inhibition) at 200 ppm [5]

C[C@@H](c1ncnn1-c1ncccn1)N(C)c1ccnc2c(C(F)(F)F)cc(C(F)(F)F)cc12 [P.88, N-methyl-N-[(1S)-1-(2-pyrimidin-2-yl-1,2,4-triazol-3-yl)ethyl]-6,8-bis(trifluoromethyl)quino-lin-4-amine]
≥ 80%: percent control (mortality, anti-feedant effect or growth inhibition) at 200 ppm [1] | mortality at 12 ppm [2] | percent control (mortality or growth inhibition) at 200 ppm [3] | percent control (mortality or growth inhibition) at 200 ppm [4]

C[C@@H](c1ncnn1-c1ncccn1)N(C)c1ncnc2c(Cl)cc(OC(F)F)cc12 [P.91, 8-chloro-6-(difluoromethoxy)-N-methyl-N-[(1S)-1-(2-pyrimidin-2-yl-1,2,4-triazol-3-yl)ethyl]quinazolin-4-amine]
≥ 80%: percent control (mortality, anti-feedant effect or growth inhibition) at 200 ppm [1] | mortality at 12 ppm [2] | percent control (mortality or growth inhibition) at 200 ppm [3] | percent control (mortality or growth inhibition) at 200 ppm [4]

CC(c1nccnc1-c1ncccn1)N(C)c1ncnc2c(C(F)(F)F)cc(Br)cc12 (stereo not drawn) [P.98, 6-bromo-N-methyl-N-[1-(3-pyrimidin-2-ylpyrazin-2-yl)ethyl]-8-(trifluoromethyl)quinazolin-4-amine]
≥ 80%: percent control (mortality, anti-feedant effect or growth inhibition) at 200 ppm [1] | mortality at 12 ppm [2] | percent control (mortality or growth inhibition) at 200 ppm [3] | percent control (mortality or growth inhibition) at 200 ppm [4] | percent control (mortality, anti-feedant effect or growth inhibition) at 200 ppm [5]

CC(c1nccnc1-c1ncccn1)N(C)c1ncnc2c(C(F)(F)F)cc(Cl)cc12 (stereo not drawn) [P.132, 6-chloro-N-methyl-N-[1-(3-pyrimidin-2-ylpyrazin-2-yl)ethyl]-8-(trifluoromethyl)quinazolin-4-amine]
≥ 80%: percent control (mortality, anti-feedant effect or growth inhibition) at 200 ppm [1] | mortality at 12 ppm [2] | percent control (mortality or growth inhibition) at 200 ppm [3] | percent control (mortality or growth inhibition) at 200 ppm [4] | percent control (mortality, anti-feedant effect or growth inhibition) at 200 ppm [5]

CC(Nc1ncnc2c(C(F)(F)F)cc(Br)cc12)c1nccnc1-c1ncccn1 (stereo not drawn) [P.133, 6-bromo-N-[1-(3-pyrimidin-2-ylpyrazin-2-yl)ethyl]-8-(trifluoromethyl)quinazolin-4-amine]
≥ 80%: percent control (mortality, anti-feedant effect or growth inhibition) at 200 ppm [1] | mortality at 12 ppm [2] | percent control (mortality or growth inhibition) at 200 ppm [3] | percent control (mortality or growth inhibition) at 200 ppm [4] | percent control (mortality, anti-feedant effect or growth inhibition) at 200 ppm [5]

C[C@H](Nc1ncnc2c(C(F)(F)F)cc(I)cc12)c1nccnc1-c1ccc(C#N)cn1 [P.162, 6-[3-[(1S)-1-[[6-iodo-8-(trifluoromethyl)quinazolin-4-yl]amino]ethyl]pyrazin-2-yl]pyridine-3-carbonitrile]
≥ 80%: percent control (mortality, anti-feedant effect or growth inhibition) at 200 ppm [1] | mortality at 12 ppm [2] | percent control (mortality or growth inhibition) at 200 ppm [3] | percent control (mortality or growth inhibition) at 200 ppm [4] | percent control (mortality, anti-feedant effect or growth inhibition) at 200 ppm [5]

CC(Nc1ncnc2c(Br)cc(Cl)cc12)c1ncnn1-c1ncccn1 (stereo not drawn) [P.171, 8-bromo-6-chloro-N-[1-(2-pyrimidin-2-yl-1,2,4-triazol-3-yl)ethyl]quinazolin-4-amine]
≥ 80%: percent control (mortality, anti-feedant effect or growth inhibition) at 200 ppm [1] | mortality at 12 ppm [2] | percent control (mortality or growth inhibition) at 200 ppm [3] | percent control (mortality or growth inhibition) at 200 ppm [4] | percent control (mortality, anti-feedant effect or growth inhibition) at 200 ppm [5]

C[C@@H](c1ncnn1-c1ccc(C#N)cn1)N(C)c1ncnc2c(C(F)(F)F)cc(C3CC3)cc12 [P.177, 6-[5-[(1S)-1-[[6-cyclopropyl-8-(trifluoromethyl)quinazolin-4-yl]-methyl-amino]ethyl]-1,2,4-triazol-1-yl]pyridine-3-carbonitrile]
≥ 80%: percent control (mortality, anti-feedant effect or growth inhibition) at 200 ppm [1] | mortality at 12 ppm [2] | percent control (mortality or growth inhibition) at 200 ppm [3] | percent control (mortality or growth inhibition) at 200 ppm [4] | percent control (mortality, anti-feedant effect or growth inhibition) at 200 ppm [5]

CC(c1nccnc1-c1ncccn1)N(C)c1ncnc2c(Br)cc(Cl)cc12 (stereo not drawn) [P.182, 8-bromo-6-chloro-N-methyl-N-[1-(3-pyrimidin-2-ylpyrazin-2-yl)ethyl]quinazolin-4-amine]
≥ 80%: mortality at 12 ppm [2] | percent control (mortality or growth inhibition) at 200 ppm [3] | percent control (mortality or growth inhibition) at 200 ppm [4] | percent control (mortality, anti-feedant effect or growth inhibition) at 200 ppm [5]

CC(Nc1ncnc2c(Br)cc(Cl)cc12)c1nccnc1-c1ncccn1 (stereo not drawn) [P.183, 8-bromo-6-chloro-N-[1-(3-pyrimidin-2-ylpyrazin-2-yl)ethyl]quinazolin-4-amine]
≥ 80%: percent control (mortality, anti-feedant effect or growth inhibition) at 200 ppm [1] | mortality at 12 ppm [2] | percent control (mortality or growth inhibition) at 200 ppm [3] | percent control (mortality or growth inhibition) at 200 ppm [4] | percent control (mortality, anti-feedant effect or growth inhibition) at 200 ppm [5]

CC(c1ncnn1-c1ccc(OC(F)F)cn1)N(C)c1ncnc2c(C(F)(F)F)cc(Br)cc12 (stereo not drawn) [P.194, 6-bromo-N-[1-[2-[5-(difluoromethoxy)-2-pyridyl]-1,2,4-triazol-3-yl]ethyl]-N-methyl-8-(trifluoromethyl)quinazolin-4-amine]
≥ 80%: percent control (mortality, anti-feedant effect or growth inhibition) at 200 ppm [1] | mortality at 12 ppm [2] | percent control (mortality or growth inhibition) at 200 ppm [3] | percent control (mortality or growth inhibition) at 200 ppm [4] | percent control (mortality, anti-feedant effect or growth inhibition) at 200 ppm [5]
